IC50 data for 43 compounds are collected here from patent US20220298141A1, “ENZYME INHIBITORS” (KALVISTA PHARMACEUTICALS LIMITED, priority 2019, published 2022).

One may read the IC50 as the concentration that inhibits the measured activity by half.

One assay deals with T1, Human Factor XIIa (Homo sapiens, UniProt P00748).
T1 construct: purchased Enzyme Research Laboratories
T1 sequence (P00748 373-615 limits assumed): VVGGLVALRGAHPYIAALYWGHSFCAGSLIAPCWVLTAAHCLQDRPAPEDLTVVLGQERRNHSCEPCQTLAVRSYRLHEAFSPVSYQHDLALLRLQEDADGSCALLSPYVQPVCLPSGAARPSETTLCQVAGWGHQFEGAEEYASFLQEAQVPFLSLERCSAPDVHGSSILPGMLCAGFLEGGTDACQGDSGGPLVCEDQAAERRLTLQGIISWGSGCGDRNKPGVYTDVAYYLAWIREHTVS
T1 sequence (P00748 20-372 partner limits assumed): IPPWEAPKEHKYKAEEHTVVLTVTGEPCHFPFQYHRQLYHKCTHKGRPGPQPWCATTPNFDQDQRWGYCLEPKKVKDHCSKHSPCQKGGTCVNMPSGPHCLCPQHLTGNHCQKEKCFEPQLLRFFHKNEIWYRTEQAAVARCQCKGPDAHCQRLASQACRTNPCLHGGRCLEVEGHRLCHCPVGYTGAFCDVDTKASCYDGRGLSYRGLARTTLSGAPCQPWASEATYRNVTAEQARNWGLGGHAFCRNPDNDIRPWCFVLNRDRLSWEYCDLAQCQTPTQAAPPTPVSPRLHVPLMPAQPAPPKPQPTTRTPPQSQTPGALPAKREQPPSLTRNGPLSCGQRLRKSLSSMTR
The assay is described as follows: Determination of Factor XIIa inhibitory activity in vitro (fluorogenic substrate H-DPro-Phe-Arg-AFC). The assay is classed as biochemical. To be noted: Human Factor XIIa (Enzyme Research Laboratories), 25° C., read-out: Human FXIIa IC50. The method, then: Determination of the % Inhibition for FXIIa
Factor XIIa inhibitory activity in vitro was determined using standard published methods (see e.g. Shori et al., Biochem. Pharmacol., 1992, 43, 1209; Baeriswyl et al., ACS Chem. Biol., 2015, 10 (8) 1861; Bouckaert et al., European Journal of Medicinal Chemistry 110 (2016) 181). Human Factor XIIa (Enzyme Research Laboratories) was incubated at 25° C. with the fluorogenic substrate H-DPro-Phe-Arg-AFC and various concentrations of the test compound. Residual enzyme activity (initial rate of reaction) was determined by measuring the […] and the IC50 value for the test compound was determined.

The target of a further assay is T2, Human FXIa (Homo sapiens, UniProt P03951).
T2 construct: purchased Enzyme Research Laboratories
The assay is described as follows: Determination of FXIa inhibitory activity in vitro (fluorogenic substrate Z-Gly-Pro-Arg-AFC). The assay is classed as biochemical. The note with it: Selectivity, Human FXIa (Enzyme Research Laboratories), 25° C.

T2 sequence (P03951 388-625 limits assumed): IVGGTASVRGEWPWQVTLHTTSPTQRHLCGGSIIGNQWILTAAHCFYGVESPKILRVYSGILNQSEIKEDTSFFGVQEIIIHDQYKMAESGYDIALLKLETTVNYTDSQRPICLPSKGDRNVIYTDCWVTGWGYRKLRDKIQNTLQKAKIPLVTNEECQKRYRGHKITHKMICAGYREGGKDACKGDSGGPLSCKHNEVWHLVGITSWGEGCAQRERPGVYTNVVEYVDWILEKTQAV
T2 sequence (P03951 19-387 partner limits assumed): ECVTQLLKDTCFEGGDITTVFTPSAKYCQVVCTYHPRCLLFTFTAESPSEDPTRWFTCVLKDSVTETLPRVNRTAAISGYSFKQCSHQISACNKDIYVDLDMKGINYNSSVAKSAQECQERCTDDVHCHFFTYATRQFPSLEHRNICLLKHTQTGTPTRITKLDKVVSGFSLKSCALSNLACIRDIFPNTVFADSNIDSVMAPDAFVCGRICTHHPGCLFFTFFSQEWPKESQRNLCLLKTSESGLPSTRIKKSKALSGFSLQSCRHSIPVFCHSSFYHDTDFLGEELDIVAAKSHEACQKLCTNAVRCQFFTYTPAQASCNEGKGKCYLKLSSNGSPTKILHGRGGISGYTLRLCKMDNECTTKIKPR

With `CN1CCC(CNc2nc(Cl)ccc2C(=O)NCc2ccc3c(N)nccc3c2)CC1` [Example 4.07], the IC50 on Human Factor XIIa was 0.3 to 1 µM; against Human FXIa it was 23.6 µM.

Consider `Nc1nccc2cc(CNC(=O)c3cc(Cl)cnc3NC[C@H]3CCC(=O)N3)ccc12` [Example 1.72, R—N-[(1-aminoisoquinoline-6-yl)methyl)-5-chloro-2-(((5-oxopyrrolidin-2-yl)methyl)amino)nicotinamide], for which the values for the IC50 at Human Factor XIIa and at Human FXIa were 10 to 40 µM and 3.16 µM, respectively.

For `CN1CCC(CNc2nccnc2C(=O)N[C@@H]2CCc3c2ccnc3N)CC1` [Example 33.13], the IC50 on Human Factor XIIa was 3 to 10 µM; against Human FXIa it was 39.8 µM.

Turning to `CC(C)N1CCC(CNc2ncc(Cl)cc2C(=O)NCc2ccc3c(N)nccc3c2)CC1` [Example 1.49], the IC50 was 0.3 to 1 µM at Human Factor XIIa and above 40 µM against Human FXIa.

In the case of `Nc1nccc2cc(CNC(=O)c3cc(Cl)cnc3NCC3CCn4ccnc4C3)ccc12` (stereo not drawn) [Example 1.59, N-((1-aminoisoquinolin-6-yl)methyl)-5-chloro-2-(((5,6,7,8-tetrahydroimidazo[1,2-a]pyridin-7-yl)methyl)amino)nicotinamide], the IC50 on Human Factor XIIa was 0.3 to 1 µM; on Human FXIa it was above 40 µM.

`COc1cnc(NCC2CCN(C)CC2)c(C(=O)NCc2ccc3c(N)nccc3c2)c1` [Example 4.12]: the IC50 on Human Factor XIIa was 1 to 3 µM; against Human FXIa, above 40 µM.

`Cc1cnc(NCC2CCN(C)CC2)c(C(=O)NCc2ccc3c(N)nccc3c2)c1` [Example 4.02]: the IC50 on Human Factor XIIa is 0.3 to 1 µM; at Human FXIa, above 40 µM.

`Nc1nccc2cc(CNC(=O)c3cnc(NC4CCN(C5CC5)CC4)c(Cl)c3)ccc12` [Example 11.42]: the half-maximal inhibitory concentration (IC50) at Human Factor XIIa was 10 to 40 µM; at Human FXIa it was above 40 µM.

With `Cc1nc2ccc(NC(=O)c3nccnc3NCC3CCN(C)CC3)cc2o1` [Example 33.10], the IC50 at Human Factor XIIa was 10 to 40 µM; on Human FXIa, 20 µM.

For `Nc1nccc2cc(CNC(=O)c3cc(Cl)cnc3NCC3CCN(Cc4cccnc4)CC3)ccc12` [Example 1.63, N-[(1-amino-6-isoquinolyl)methyl]-5-chloro-2-[[1-(3-pyridylmethyl)-4-piperidyl]methylamino]pyridine-3-carboxamide], the concentration for half-maximal inhibition (IC50) is 0.3 to 1 µM on Human Factor XIIa and above 40 µM against Human FXIa.

On to `CN(C)CCNc1ncc(C(=O)NCc2ccc3c(N)nccc3c2)cc1Cl` [Example 11.30], for which the values for the IC50 at Human Factor XIIa and at Human FXIa were 10 to 40 µM and above 40 µM, respectively.

As to `CN1CCC(CNc2ncc(C3CC3)cc2C(=O)NCc2ccc3c(N)nccc3c2)CC1` [Example 4.10], the results for the IC50 on Human Factor XIIa and on Human FXIa were 0.3 to 1 µM and above 40 µM, respectively.

In the case of `CN1CCC(CNc2ncccc2C(=O)NCc2ccc3c(N)nccc3c2)CC1` [Example 4.01, N-((1-aminoisoquinolin-6-yl)methyl)-2-(((1-methylpiperidin-4-yl)methyl)amino)nicotinamide], the IC50 at Human Factor XIIa was 1 to 3 µM; against Human FXIa it was above 40 µM.

Take `CN1CCC(CNc2ncc(Cl)cc2C(=O)NCc2c(Cl)cccc2-n2cnnn2)CC1` [Example 33.01, 5-Chloro-N-{[2-chloro-6-(1,2,3,4-tetrazol-1-yl)phenyl]methyl}-2-{[(1-methylpiperidin-4-yl)methyl]amino}pyridine-3-carboxamide]: the concentration for half-maximal inhibition (IC50) on Human Factor XIIa was 3 to 10 µM; on Human FXIa it was above 40 µM.

As to `Nc1nccc2cc(CNC(=O)c3cc(Cl)cnc3Nc3ccc(N4CCOCC4)cc3)ccc12` [Example 1.44], the IC50 is 10 to 40 µM on Human Factor XIIa and above 40 µM on Human FXIa.

On to `CN1CCC(CNc2nccnc2C(=O)Nc2cccc3c(N)nccc23)CC1` [Example 33.12, N-(1-aminoisoquinolin-5-yl)-3-(((1-methylpiperidin-4-yl)methyl)amino)pyrazine-2-carboxamide], for which the IC50 is 1 to 3 µM on Human Factor XIIa and above 40 µM against Human FXIa.

Consider `CN1CCc2c(cccc2Nc2nccnc2C(=O)NCc2ccc3c(N)nccc3c2)C1` [Example 4.23], for which the IC50 is 0.3 to 1 µM at Human Factor XIIa and above 40 µM against Human FXIa.

In the case of `Cc1c(CNC(=O)c2nccnc2NCC2CCN(C)CC2)ccc2c(N)nccc12` [Example 33.18, N-((1-amino-5-methylisoquinolin-6-yl)methyl)-3-(((1-methylpiperidin-4-yl)methyl)amino)pyrazine-2-carboxamide], the IC50 at Human Factor XIIa was 0.3 to 1 µM; against Human FXIa, above 40 µM.

With `Nc1nccc2cc(CNC(=O)c3nccnc3NCC3CCN(CCO)CC3)ccc12` [Example 4.25], the figures for the 50% inhibitory concentration (IC50) at Human Factor XIIa and against Human FXIa were 0.3 to 1 µM and above 40 µM, respectively.

Turning to `Nc1nccc2cc(CNC(=O)c3cc(Cl)cnc3NCC3CCN(CC(F)(F)F)CC3)ccc12` [Example 1.57], the IC50 at Human Factor XIIa was 3 to 10 µM; against Human FXIa, above 40 µM.

Regarding `Nc1nccc2cc(CNC(=O)c3cnc(Oc4cccc(N5CCNCC5)c4)c(Cl)c3)ccc12` [Example 13.25], the IC50 on Human Factor XIIa lay within 3 to 10 µM.

On to `CN(C)c1ccc(Nc2ncc(C(=O)NCc3ccc4c(N)nccc4c3)cc2Cl)cc1` [Example 11.26], for which the IC50 on Human Factor XIIa is 10 to 40 µM.

`CCN(CC)CCCOc1ncc(C(=O)NCc2ccc3c(N)nccc3c2)cc1Cl` [Example 13.22]: on Human Factor XIIa, the IC50 was 10 to 40 µM.

Turning to `Nc1nccc2cc(CNC(=O)c3cc(Cl)cnc3NCCN3CCCC3=O)ccc12` [Example 1.29], at Human Factor XIIa, the IC50 lay in the range of 3 to 10 µM.

Regarding `CN(Cc1ccccc1)c1ncc(Cl)cc1C(=O)NCc1ccc2c(N)nccc2c1` [Example 28.01, N-((1-aminoisoquinolin-6-yl)methyl)-2-(benzyl(methyl)amino)-5-chloronicotinamide], at Human Factor XIIa, the IC50 lay in the range of 10 to 40 µM.

`CN1CCC(N(C)c2ncc(C(=O)NCc3ccc4c(N)nccc4c3)cc2Cl)CC1` [Example 8.06, N-((1-aminoisoquinolin-6-yl)methyl)-5-chloro-6-(methyl(1-methylpiperidin-4-yl)amino)nicotinamide]: the half-maximal inhibitory concentration (IC50) at Human Factor XIIa was 1 to 3 µM.

`CN(C)CCCOc1cccc(CN(C)c2ncc(C(=O)NCc3ccc4c(N)nccc4c3)cc2Cl)c1` [Example 8.05]: at Human Factor XIIa, the IC50 lay in the range of 10 to 40 µM.

Turning to `Nc1nccc2cc(CNC(=O)c3cncc(-c4ccccc4)c3)ccc12` [Example 29.01], the IC50 at Human Factor XIIa was in the range of 10 to 40 µM.

Regarding `Nc1nccc2cc(CNC(=O)c3cncc(-c4ccnn4Cc4ccccc4)c3)ccc12` [Example 29.03, N-((1-aminoisoquinolin-6-yl)methyl)-5-(1-benzyl-1H-pyrazol-5-yl)nicotinamide], at Human Factor XIIa, the IC50 is 3 to 10 µM.

Consider `Nc1nccc2cc(CNC(=O)c3cncc(Cl)c3)ccc12` [Example 19.04, N-((1-aminoisoquinolin-6-yl)methyl)-5-chloronicotinamide], for which, on Human Factor XIIa, the IC50 was in the range of 10 to 40 µM.

In the case of `Nc1nccc2cc(CNC(=O)c3cc(Cl)cnc3NCc3cccc(N4CCCCC4)c3)ccc12` [Example 1.27], the IC50 on Human Factor XIIa was in the range of 10 to 40 µM.

Consider `Nc1nccc2cc(CNC(=O)c3cc(Cl)cnc3N3CCN(c4ccncc4)CC3)ccc12` [Example 16.03], for which the IC50 on Human Factor XIIa was 10 to 40 µM.

On to `CN1CCC(COc2ncc(Cl)cc2C(=O)NCc2ccc3c(N)nccc3c2)CC1` [Example 22.07], for which the IC50 on Human Factor XIIa is 10 to 40 µM.

Take `Nc1nccc2cc(CNC(=O)c3cc(Cl)cnc3NCc3ccc(CN4CCCC4=O)cc3)ccc12` [Example 1.34]: on Human Factor XIIa, the half-maximal inhibitory concentration (IC50) is 10 to 40 µM.

Take `Nc1nccc2cc(CNC(=O)c3cnc(NCC4CCN(Cc5ccccc5)CC4)c(Cl)c3)ccc12` [Example 11.10]: the IC50 on Human Factor XIIa lay in the range of 3 to 10 µM.

As to `Nc1nccc2cc(CNC(=O)c3cnc(Oc4ccc(N5CCNCC5)cc4)c(Cl)c3)ccc12` [Example 13.24, N-((1-aminoisoquinolin-6-yl)methyl)-5-chloro-6-(4-(piperazin-1-yl)phenoxy)nicotinamide], at Human Factor XIIa, the IC50 is 1 to 3 µM.

Regarding `Nc1nccc2cc(CNC(=O)c3cnc(NCc4ccccn4)c(Cl)c3)ccc12` [Example 11.18], the IC50 at Human Factor XIIa lay in the range of 10 to 40 µM.

For `Nc1nccc2cc(CNC(=O)c3cc(Cl)cnc3NCc3ccc(N4CCCCC4=O)cc3)ccc12` [Example 1.32], the IC50 at Human Factor XIIa was in the range of 10 to 40 µM.

For `Nc1nccc2cc(CNC(=O)c3cccc(Cl)c3)ccc12` [Example 19.05, N-((1-aminoisoquinolin-6-yl)methyl)-3-chlorobenzamide], the IC50 at Human Factor XIIa fell in the range of 10 to 40 µM.

Regarding `N#Cc1ccccc1Oc1ncc(C(=O)NCc2ccc3c(N)nccc3c2)cc1Cl` [Example 13.09, N-((1-aminoisoquinolin-6-yl)methyl)-5-chloro-6-(2-cyanophenoxy)nicotinamide], the IC50 at Human Factor XIIa was in the range of 3 to 10 µM.

As for `CC(C)N1CCN(CCCNc2ncc(Cl)cc2C(=O)NCc2ccc3c(N)nccc3c2)CC1` [Example 1.26], the half-inhibitory concentration (IC50) at Human Factor XIIa lay in the range of 1 to 3 µM.

`Nc1nccc2cc(CNC(=O)c3cc(Cl)cnc3OCCN3CCCC3)ccc12` [Example 22.08]: at Human Factor XIIa, the IC50 was in the range of 10 to 40 µM.

As to `Nc1nccc2cc(CNC(=O)c3cc(Cl)cnc3NCCN3CCS(=O)(=O)CC3)ccc12` [Example 1.17], at Human Factor XIIa, the IC50 was in the range of 3 to 10 µM.
